According to patent publication US8354441B2, “Oxazoline derivatives” (Hoffmann-La Roche Inc., priority 2009, dated 2013):

Assays:
[1] = target: T1, mouse TAAR1 (Mus musculus, UniProt Q923Y8); experiment: TAAR1 radioligand binding with [3H]-rac-2-(1,2,3,4-tetrahydro-1-naphthyl)-2-imidazoline, membranes of stably transfected HEK293 cells; details: first value of the cell, read-out: Ki (μM) mouse/rat: mouse
T1 construct: expressed in transfected cells; host or cells: HEK293 (ATCC # CRL-1573), stably transfected with pIRESneo2 expression plasmid
Procedure, shortened: (§1)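 Competition binding: competitors spanning 10 pM–30 μM displace 60 nM [3H]-rac-2-(1,2,3,4-tetrahydro-1-naphthyl)-2-imidazoline from stably transfected HEK293 membranes (mouse or rat receptor), 30 min, 4 °C, pH 7.0 buffer with Mg2+/Ca2+. Bound label counted after GF/C filtration; 10 μM unlabelled ligand defines non-specific binding.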

[2] = target: T2, rat TAAR1 (Rattus norvegicus, UniProt Q923Y9); experiment: as above; details: second value of the cell, read-out: Ki (μM) mouse/rat: rat
T2 construct: expressed in transfected cells; host or cells: HEK293 (ATCC # CRL-1573), stably transfected with pIRESneo2 expression plasmid
Procedure, shortened: as §1

T1 sequence (Q923Y8 whole entry): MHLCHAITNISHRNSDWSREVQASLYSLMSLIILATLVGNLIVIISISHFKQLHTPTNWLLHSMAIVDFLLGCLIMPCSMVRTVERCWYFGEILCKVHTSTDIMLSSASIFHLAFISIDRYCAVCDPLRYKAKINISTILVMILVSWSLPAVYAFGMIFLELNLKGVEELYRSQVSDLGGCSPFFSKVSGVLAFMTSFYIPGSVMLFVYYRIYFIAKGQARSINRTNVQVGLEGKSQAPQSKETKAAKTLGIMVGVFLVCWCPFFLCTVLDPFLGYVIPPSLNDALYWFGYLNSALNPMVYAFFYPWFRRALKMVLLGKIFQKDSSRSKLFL
T2 sequence (Q923Y9 whole entry): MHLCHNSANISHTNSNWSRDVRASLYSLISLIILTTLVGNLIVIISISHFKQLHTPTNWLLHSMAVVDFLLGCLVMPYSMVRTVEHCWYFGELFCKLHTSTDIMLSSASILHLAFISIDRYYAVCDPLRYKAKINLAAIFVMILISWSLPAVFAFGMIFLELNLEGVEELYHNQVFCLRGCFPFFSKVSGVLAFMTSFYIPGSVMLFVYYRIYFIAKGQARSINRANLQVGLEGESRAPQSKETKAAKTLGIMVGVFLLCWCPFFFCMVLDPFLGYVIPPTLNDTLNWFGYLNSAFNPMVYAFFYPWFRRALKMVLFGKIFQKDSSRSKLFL

`NC1=N[C@@H](CCc2ccc(NC(=O)C3(c4ccc(Cl)cc4)CC3)cc2)CO1` [Example 53, 1-(4-Chloro-phenyl)-cyclopropanecarboxylic acid {4-[2-((S)-2-amino-4,5-dihydro-oxazol-4-yl)-ethyl]-phenyl}-amide] showed a Ki [1] of 0.0009 µM and a Ki [2] of 0.0016 µM.
Molecule `NC1=N[C@@H](CCc2ccc(NC(=O)OCc3ccc(Cl)cc3)cc2)CO1` [Example 146, {4-[2-((S)-2-Amino-4,5-dihydro-oxazol-4-yl)-ethyl]-phenyl}-carbamic acid 4-chloro-benzyl ester] has a Ki [1] of 0.0001 µM and a Ki [2] of 0.0003 µM.
